# How the values were obtained:
# P388 = assay: Growth inhibition of mouse P388 cells after 72 hrs by SRB assay; format: functional; conditions: P388, 72 h, read-out: ED50 (the source's name)
# KB = assay: Growth inhibition of human KB cells after 72 hrs by SRB assay; format: functional; conditions: read-out: ED50 (the source's name)
# HT-29 = assay: Growth inhibition of human HT-29 cells after 72 hrs by SRB assay; format: functional; conditions: HT-29, 72 h, read-out: ED50 (the source's name)
# MCF7 = assay: Growth inhibition of human MCF7 cells after 72 hrs by SRB assay; format: functional; conditions: MCF7, 72 h, read-out: ED50 (the source's name)
# A549 = assay: Growth inhibition of human A549 cells after 72 hrs by SRB assay; format: functional; conditions: A549, 72 h, read-out: ED50 (the source's name)
# [1] = Growth inhibition of rat ASK cells after 72 hrs by SRB assay; format: functional; conditions: read-out: ED50 (the source's name)
# [2] = Growth inhibition of human KKU-M213 cells after 72 hrs by SRB assay; format: functional; conditions: KKU-M213, 72 h, read-out: ED50 (the source's name)
# HuCC-A1 = assay: Growth inhibition of human HuCCa1 cells after 72 hrs by SRB assay; format: functional; conditions: HuCC-A1, 72 h, read-out: ED50 (the source's name)
# [3] = Growth inhibition of human KKU100 cells after 72 hrs by SRB assay; format: functional; conditions: KKU100, 72 h, read-out: ED50 (the source's name)
# [4] = Growth inhibition of human HEK293 cells after 72 hrs by SRB assay; format: cell-based; conditions: read-out: ED50
EC50 (P388) [µM],EC50 (KB) [µM],EC50 (HT-29) [µM],EC50 (MCF7) [µM],EC50 (A549) [µM],SMILES,EC50 [1] [µM],EC50 [2] [µM],EC50 (HuCC-A1) [µM],EC50 [3] [µM],GI50 at 72 h [4] [µM]
> 50,> 50,> 50,> 50,> 50,C[C@]1(CO)[C@H]2CC[C@@]3(CO3)[C@@H](/C=C/C3=CCOC3=O)[C@]2(C)CC[C@H]1O,> 50,> 50,> 50,> 50,> 50
3.33,4.92,6.21,5.38,5.88,C[C@]1(COC(c2ccccc2)(c2ccccc2)c2ccccc2)[C@H]2CC[C@@]3(CO3)[C@@H](/C=C/C3=CCOC3=O)[C@]2(C)CC[C@H]1O,6.47,4.68,7.81,28.8,5.39
4.13,4.02,4.43,4.23,6.22,CC(C)(C)[Si](OC[C@@]1(C)[C@H]2CC[C@@]3(CO3)[C@@H](/C=C/C3=CCOC3=O)[C@]2(C)CC[C@H]1O)(c1ccccc1)c1ccccc1,6.81,3.08,6.41,3.27,4.97
20,> 50,48.9,43.5,46.3,CC(=O)OC[C@@]1(C)[C@H]2CC[C@@]3(CO3)[C@@H](/C=C/C3=CCOC3=O)[C@]2(C)CC[C@H]1O,> 50,48.9,> 50,> 50,38.1
5.25,5.19,5.22,6.38,8.31,CC(=O)O[C@@H]1CC[C@]2(C)[C@H](CC[C@@]3(CO3)[C@H]2/C=C/C2=CCOC2=O)[C@]1(C)CO[Si](c1ccccc1)(c1ccccc1)C(C)(C)C,8.96,5.13,8.08,4.5,6.01
15.1,19.2,7.24,8.18,9.36,CC(C)(C)[Si](C)(C)OC[C@@]1(C)[C@H]2CC[C@@]3(CO3)[C@@H](/C=C/C3=CCOC3=O)[C@]2(C)CC[C@H]1O,19,8.57,> 50,9.25,6.15
5.51,4.45,6.48,4.44,6.49,C=C1CC[C@@H]2[C@](C)(CO[Si](c3ccccc3)(c3ccccc3)C(C)(C)C)[C@H](O)CC[C@@]2(C)[C@@H]1/C=C/C1=CCOC1=O,7.72,5.07,5.53,14.7,4.4
5.28,5.12,6.74,6.84,8.16,CC(=O)O[C@@H]1CC[C@]2(C)[C@H](CC[C@@]3(CO3)[C@H]2/C=C/C2=CCOC2=O)[C@]1(C)COC(c1ccccc1)(c1ccccc1)c1ccccc1,8.29,10.2,9.74,14.1,5.99
14.5,5.15,32.5,7.77,9.47,C=C1CC[C@@H]2[C@](C)(CO[Si](c3ccccc3)(c3ccccc3)C(C)(C)C)[C@H](OC(C)=O)CC[C@@]2(C)[C@@H]1/C=C/C1=CCOC1=O,> 50,16,24.3,> 50,5.57

# Second part, the molecule before the results:
SMILES,EC50 (P388) [µM],EC50 (KB) [µM],EC50 (HT-29) [µM],EC50 (MCF7) [µM],EC50 (A549) [µM],EC50 [1] [µM],EC50 [2] [µM],EC50 (HuCC-A1) [µM],EC50 [3] [µM],GI50 at 72 h [4] [µM]
C=C1CC[C@@H]2[C@](C)(COC(C)=O)[C@H](O)CC[C@@]2(C)[C@@H]1/C=C/C1=CCOC1=O,27.7,25.7,45,31.1,32.8,> 50,> 50,> 50,40.2,27.8
C=C1CC[C@@H]2[C@](C)(COC(C)=O)[C@H](OC(C)=O)CC[C@@]2(C)[C@@H]1/C=C/C1=CCOC1=O,27.7,25.7,41.9,28.8,34,42.5,37.3,40.9,> 50,25
C=C1CC[C@@H]2[C@](C)(CO)[C@H](O)CC[C@@]2(C)[C@@H]1/C=C/C1=CCOC1=O,35,5.07,28.6,18.7,28.2,> 50,> 50,35.8,36.9,7.53
C=C1CC[C@@H]2[C@](C)(COC(c3ccccc3)(c3ccccc3)c3ccccc3)[C@H](O)CC[C@@]2(C)[C@@H]1/C=C/C1=CCOC1=O,3.87,4.94,8.38,4.86,6.79,7.45,5.42,7.78,36.2,4.68
CC(=O)O[C@@H]1CC[C@]2(C)[C@H](CC[C@@]3(CO3)[C@H]2/C=C/C2=CCOC2=O)[C@]1(C)CO[Si](C)(C)C(C)(C)C,7.45,25.8,18.6,16.6,24.1,22.4,19.1,23.4,16.4,18.1
C=C1CC[C@@H]2[C@](C)(CO[Si](C)(C)C(C)(C)C)[C@H](OC(C)=O)CC[C@@]2(C)[C@@H]1/C=C/C1=CCOC1=O,6.56,4.94,12.8,6.37,9.18,16.2,12.1,16,14,6.36
C=C1CC[C@@H]2[C@](C)(CO[Si](C(C)C)(C(C)C)C(C)C)[C@H](O)CC[C@@]2(C)[C@@H]1/C=C/C1=CCOC1=O,5.96,4.7,7.14,5.46,7.95,7.35,7.06,6.72,18.2,5.28
C=C1CC[C@@H]2[C@](C)(CO[Si](C)(C)C(C)(C)C)[C@H](O)CC[C@@]2(C)[C@@H]1/C=C/C1=CCOC1=O,8.24,5.12,8.48,7.61,17.2,9.61,27.4,18.2,3.09,6.61
C=C1CC[C@@H]2[C@](C)(CO[Si](C(C)C)(C(C)C)C(C)C)[C@H](OC(C)=O)CC[C@@]2(C)[C@@H]1/C=C/C1=CCOC1=O,12.1,7.17,17.9,7.07,22,29.4,12.6,10.2,4.1,8.28
C=C1CC[C@@H]2[C@](C)(COC(c3ccccc3)(c3ccccc3)c3ccccc3)[C@H](OC(C)=O)CC[C@@]2(C)[C@@H]1/C=C/C1=CCOC1=O,12.9,6.36,21.9,9.12,12,39.9,9.98,38.6,> 50,7.02
CC(C)[Si](OC[C@@]1(C)[C@H]2CC[C@@]3(CO3)[C@@H](/C=C/C3=CCOC3=O)[C@]2(C)CC[C@H]1O)(C(C)C)C(C)C,3.86,4.59,2.28,4.98,6.58,6.6,3.37,7.35,2.93,4.04
CC(=O)O[C@@H]1CC[C@]2(C)[C@H](CC[C@@]3(CO3)[C@H]2/C=C/C2=CCOC2=O)[C@]1(C)CO[Si](C(C)C)(C(C)C)C(C)C,7.84,8.48,7.4,7.84,8.65,15.7,7.22,8.92,17.5,7.39
CC(=O)OC[C@@]1(C)[C@H]2CC[C@@]3(CO3)[C@@H](/C=C/C3=CCOC3=O)[C@]2(C)CC[C@H]1OC(C)=O,> 50,> 50,> 50,> 50,> 50,> 50,> 50,> 50,> 50,> 50
Cc1c2ccncc2c(C)c2c1[nH]c1ccccc12 [ELLIPTECINE],2.12,2.34,2.68,1.66,2.37,2.17,4.75,3.46,4.16,2.27

# — ChEMBL document CHEMBL4177652, “Synthesis of 14-deoxy-11,12-didehydroandrographolide analogues as potential cytotoxic agents for cholangiocarcinoma” (Bioorg Med Chem Lett, 2017)
